# Measured values as given in US7238775B2, “Receptor(SSTR4)-selective somatostatin analogs” (The Salk Institute for Biological Studies, priority 2002, dated 2007).
# Numbered stars: 1 amine (or outer) side, 2 acyl side, 3 side chain; on linkers, the order of the positions; unused ones are H or OH. Bridge positions count the residues as written; N and C are the ends. Square brackets hold non-standard residues; d marks the D form. Ends that are not written are not given here. Peptide text beside a SMILES is read from it. * marks the point of attachment. DOTA = O=C(O)CN1CCN(CC(=O)O)CCN(CC(=O)*)CCN(CC(=O)O)CC1; X1 = C[C@H](c1ccc2ccccc2c1)[C@H](N[*:1])C(=O)[*:2]; Phe(4-NH2) = Nc1ccc(C[C@H](N)C(=O)O)cc1; 2Nal = N[C@@H](Cc1ccc2ccccc2c1)C(=O)O; GABA = NCCCC(=O)O
# Target: T1, hSSTR1 (Homo sapiens, UniProt P30872)
# T1 construct: expressed in transfected cells; host or cells: CHO-K1 cells and CCL39 cells
# Assay: Displacement of 125I-[Leu8,D-Trp22,Tyr25]SRIF-28 from cloned receptor, membrane pellet autoradiography
# Assay type: binding
# Settings: inhibition of 125I-SRIF-28 radioligand binding, cloned human receptor
# Experimental: (§1) In vitro Bioassay: The effects of the various somatostatin analogs are tested in vitro for their ability to bind to isolated cloned receptors expressed on CHO-K1 cells and CCL39 cells. CHO-K1 cells are grown in Ham's F-12 medium, and CCL39 cells are grown in Dulbecco's modified Eagle's medium/Ham's F-12(1:1) mix, supplemented with 10% fetal bovine serum, 100 U/ml penicillin and 100 μg/ml streptomycin, in humidified air containing 5% CO2 at 37° C.
# (§2) Cells are washed twice with and scraped into ice-cold 0.05 M Tris-HCl (pH 7.4), collected by centrifugation, and homogenized using a rotor/stator/system in the same buffer. After centrifugation at 120 g for 5 min at 4° C., the supernatant is collected and centrifuged again at 48,000 g for 30 min at 4° C. The resulting pellet is resuspended in ice-cold Tris buffer, transferred into a microfuge tube, and centrifuged at 20,000 g for 15 min at 4° C. After withdrawal of the supernatant, the membrane pellet is stored at −80° C.
# Receptor autoradiography is performed on 20 μm thick cryostat sections of the membrane pellets, mounted on microscope slides, and then stored at −20° C. […] […] […] IC50 values are calculated after quantification of the data using a computer-assisted image processing system as known in this art.
# (§3) The numbers in parentheses indicate the number of times the particular binding test was carried out.
# T1 sequence (P30872 whole entry): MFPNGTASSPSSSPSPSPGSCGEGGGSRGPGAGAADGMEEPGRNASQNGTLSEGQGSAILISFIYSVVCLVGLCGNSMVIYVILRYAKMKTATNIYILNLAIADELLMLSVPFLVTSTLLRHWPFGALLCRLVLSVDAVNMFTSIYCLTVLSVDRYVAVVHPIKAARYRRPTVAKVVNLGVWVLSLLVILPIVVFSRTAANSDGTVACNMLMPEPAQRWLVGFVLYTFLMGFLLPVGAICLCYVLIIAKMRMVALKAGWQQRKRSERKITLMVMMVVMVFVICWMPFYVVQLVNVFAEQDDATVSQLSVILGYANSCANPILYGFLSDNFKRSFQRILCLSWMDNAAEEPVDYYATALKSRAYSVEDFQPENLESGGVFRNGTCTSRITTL
row,Compound,IC50
1,"C[C@@H](O)[C@@H]1NC(=O)[C@H](CCCCN)NC(=O)[C@H](Cc2c[nH]c3ccccc23)NC(=O)[C@H](Cc2ccc(CN)cc2)NC(=O)[C@H](Cc2ccccc2)NC(=O)[C@@H](NC(=O)[C@@H](N)Cc2ccc(O)cc2)CSSC[C@@H](C(=O)O)NC(=O)[C@H](Cc2ccccc2)NC1=O [Peptide No. 15, (cyclo)H-Tyr-Cys-Phe-4 Amp-Trp-Lys-Thr-Phe-Cys-OH]",> 1000 nM
2,"C[C@H](c1ccc2ccccc2c1)[C@@H]1NC(=O)[C@H](Cc2ccc(O)cc2)NC(=O)[C@H](Cc2ccccc2)NC(=O)[C@@H](N)CSSC[C@@H](C(=O)O)NC(=O)[C@H](Cc2ccccc2)NC(=O)[C@H]([C@@H](C)O)NC(=O)[C@H](CCCCN)NC1=O [Peptide No. 17A, (cyclo)H-Cys-Phe-Tyr-threo-(2S,3R)C^βMe-2Nal-Lys-Thr-Phe-Cys-OH] (H-CFY[X1]KTFC-OH; disulfide 1-8)",> 1000 nM
3,"C[C@@H](O)[C@@H]1NC(=O)[C@H](CCCCN)NC(=O)[C@H](Cc2c[nH]c3ccccc23)NC(=O)[C@H](Cc2ccc(CN)cc2)NC(=O)[C@H](Cc2ccccc2)NC(=O)[C@@H](NC(=O)[C@H](Cc2ccc(O)cc2)NC(N)=O)CSSC[C@@H](C(=O)O)NC(=O)[C@H](Cc2ccccc2)NC1=O [Peptide No. 15A, (cyclo)Cbm-Tyr-Cys-Phe-Amp-Trp-Lys-Thr-Phe-Cys-OH]",> 1000 nM
4,"C[C@H](c1ccc2ccccc2c1)[C@@H]1NC(=O)[C@H](Cc2ccc(O)cc2)NC(=O)[C@H](Cc2ccccc2)NC(=O)[C@H](N)CSSC[C@@H](C(=O)O)NC(=O)[C@H](Cc2ccccc2)NC(=O)[C@H]([C@@H](C)O)NC(=O)[C@H](CCCCN)NC1=O [Peptide No. 16A, (cyclo)H-D-Cys-Phe-Tyr-threo-(2S,3R)C^βMe-2Nal-Lys-Thr-Phe-Cys-OH] (H-[dC]FY[X1]KTFC-OH; disulfide 1-8)",> 10000 nM

# Target: T2, hSSTR2 (Homo sapiens, UniProt P30874)
# T2 construct: expressed in transfected cells; host or cells: CHO-K1 cells and CCL39 cells
# Assay: as above
# Assay type: binding
# Settings: inhibition of 125I-SRIF-28 radioligand binding, cloned human receptor
# Experimental: as §1, §2
# (§4) Receptor autoradiography is performed on 20 μm thick cryostat sections of the membrane pellets, mounted on microscope slides, and then stored at −20° C. […] Increasing concentrations of the unlabeled peptide are used ranging from 0.1-1000 nM. […] IC50 values are calculated after quantification of the data using a computer-assisted image processing system as known in this art.
# as §3
# T2 sequence (P30874 whole entry): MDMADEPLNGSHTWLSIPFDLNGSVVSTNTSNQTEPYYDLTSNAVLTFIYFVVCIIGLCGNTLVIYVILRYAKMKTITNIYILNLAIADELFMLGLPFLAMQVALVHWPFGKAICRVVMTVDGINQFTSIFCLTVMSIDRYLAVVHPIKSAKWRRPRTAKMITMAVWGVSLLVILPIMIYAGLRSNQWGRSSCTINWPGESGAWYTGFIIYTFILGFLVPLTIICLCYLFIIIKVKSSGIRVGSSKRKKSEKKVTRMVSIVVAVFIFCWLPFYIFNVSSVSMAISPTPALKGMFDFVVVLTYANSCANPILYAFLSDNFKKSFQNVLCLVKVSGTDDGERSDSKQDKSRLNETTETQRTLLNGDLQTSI
row,Compound,IC50
1,"C[C@@H](O)[C@@H]1NC(=O)[C@H](CCCCN)NC(=O)[C@H](Cc2ccc3ccccc3c2)NC(=O)[C@H](Cc2ccc(N)cc2)NC(=O)[C@H](Cc2ccccc2)NC(=O)[C@@H](N)CSSC[C@@H](C(=O)O)NC(=O)[C@H](Cc2ccccc2)NC1=O [Peptide No. 5, (cyclo)H-Cys-Phe-4Aph-2Nal-Lys-Thr-Phe-Cys-OH] (H-CF[Phe(4-NH2)][2Nal]KTFC-OH; disulfide 1-8)",> 1000 nM

# Target: T3, hSSTR4 (Homo sapiens, UniProt P31391)
# T3 construct: expressed in transfected cells; host or cells: CHO-K1 cells and CCL39 cells
# Assay: as above
# Assay type: binding
# Settings: not given
# Experimental: as §1, §2, §4, §3
# T3 sequence (P31391 whole entry): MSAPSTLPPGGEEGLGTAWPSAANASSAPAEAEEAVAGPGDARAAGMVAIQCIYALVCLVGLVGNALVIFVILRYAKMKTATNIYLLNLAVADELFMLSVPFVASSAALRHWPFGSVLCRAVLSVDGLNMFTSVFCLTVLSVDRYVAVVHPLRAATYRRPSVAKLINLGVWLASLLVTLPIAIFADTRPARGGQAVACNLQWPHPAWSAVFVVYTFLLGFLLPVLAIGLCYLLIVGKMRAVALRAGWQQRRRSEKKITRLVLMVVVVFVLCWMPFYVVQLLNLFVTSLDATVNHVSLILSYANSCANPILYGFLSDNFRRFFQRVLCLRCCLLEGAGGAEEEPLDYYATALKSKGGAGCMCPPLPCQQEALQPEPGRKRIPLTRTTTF
Compound,selectivity in binding to SSTR4 compared with the other 4 receptors (in words),selectivity for SSTR4 over the closest other receptor
(cyclo)H-Cys-Phe-Ala-Trp-Lys-Thr-Gly-Cys-OH (H-CFAWKTGC-OH; disulfide 1-8 (inferred)) [Peptide 12G],selective in binding to hSSTR4,–
(cyclo)H-Cys-Phe-Ala-Trp-Lys-Thr-Val-Cys-OH (H-CFAWKTVC-OH; disulfide 1-8 (inferred)) [Peptide 12E],selective in binding to hSSTR4,–
"C[C@H](c1ccc2ccccc2c1)[C@@H]1NC(=O)[C@H](Cc2ccc(O)cc2)NC(=O)[C@H](Cc2ccccc2)NC(=O)[C@@H](N)CSSC[C@@H](C(=O)O)NC(=O)[C@H](Cc2ccccc2)NC(=O)[C@H]([C@@H](C)O)NC(=O)[C@H](CCCCN)NC1=O [Peptide No. 17A, (cyclo)H-Cys-Phe-Tyr-threo-(2S,3R)C^βMe-2Nal-Lys-Thr-Phe-Cys-OH] (H-CFY[X1]KTFC-OH; disulfide 1-8)",show selectivity for binding to SSTR4,~100 times
(cyclo)Cys-Phe-Val-Trp-Lys-Thr-Val-Cys-OH (CFVWKTVC-OH; disulfide 1-8 (inferred)) [Peptide No. 12F],selective in binding to hSSTR4,–
C[C@@H]1NC(=O)[C@H](Cc2ccccc2)NC(=O)[C@@H](NC(=O)CCCNC(=O)CN2CCN(CC(=O)O)CCN(CC(=O)O)CCN(CC(=O)O)CC2)CSSC[C@@H](C(=O)O)NC(=O)[C@H](Cc2ccccc2)NC(=O)[C@H]([C@@H](C)O)NC(=O)[C@H](CCCCN)NC(=O)[C@H](Cc2c[nH]c3ccccc23)NC1=O [Peptide 12D] ({DOTA-GABA}-CFAWKTFC-OH; disulfide 1-8),continues to show selectivity in binding to hSSTR4,–
(cyclo)H-Cys-Phe-Val-D-Trp-Lys-Thr-Phe-Cys-OH (H-CFV[dW]KTFC-OH; disulfide 1-8; SMILES CC(C)[C@@H]1NC(=O)[C@H](Cc2ccccc2)NC(=O)[C@@H](N)CSSC[C@@H](C(=O)O)NC(=O)[C@H](Cc2ccccc2)NC(=O)[C@H]([C@@H](C)O)NC(=O)[C@H](CCCCN)NC(=O)[C@@H](Cc2c[nH]c3ccccc23)NC1=O) [Peptide 11A],selective in binding to hSSTR4,–
"C[C@H](c1ccc2ccccc2c1)[C@@H]1NC(=O)[C@H](Cc2ccc(O)cc2)NC(=O)[C@H](Cc2ccccc2)NC(=O)[C@H](N)CSSC[C@@H](C(=O)O)NC(=O)[C@H](Cc2ccccc2)NC(=O)[C@H]([C@@H](C)O)NC(=O)[C@H](CCCCN)NC1=O [Peptide No. 16A, (cyclo)H-D-Cys-Phe-Tyr-threo-(2S,3R)C^βMe-2Nal-Lys-Thr-Phe-Cys-OH] (H-[dC]FY[X1]KTFC-OH; disulfide 1-8)",–,more than 100 times

# Same assay, conditions: inhibition of 125I-SRIF-28 radioligand binding, cloned human receptor
row,Compound,IC50
1,"C[C@H](c1ccc2ccccc2c1)[C@@H]1NC(=O)[C@H](Cc2ccc(O)cc2)NC(=O)[C@H](Cc2ccccc2)NC(=O)[C@H](N)CSSC[C@@H](C(=O)O)NC(=O)[C@H](Cc2ccccc2)NC(=O)[C@H]([C@@H](C)O)NC(=O)[C@H](CCCCN)NC1=O [Peptide No. 16A, (cyclo)H-D-Cys-Phe-Tyr-threo-(2S,3R)C^βMe-2Nal-Lys-Thr-Phe-Cys-OH] (H-[dC]FY[X1]KTFC-OH; disulfide 1-8)",3.5 ± 0.5 nM
